Data as given in patent publication US4532254A, “Inhibitor of aldose reductase” (Kaken Pharmaceutical Co., Ltd., priority 1983, dated 1985).
Where two headings read alike, the source gives them in different places.

Experiments:
rat lens AR = biological target: T1, rat lens AR (Rattus norvegicus, UniProt P07943); test: Inhibition of rat lens aldose reductase (RLAR), NADPH oxidation at 340 nm; type: biochemical, rat (Wistar strain); conditions: for inhibition at 10 µM: 10^-5 M; for inhibition at 10 µM / inhibition at 1 µM / inhibition at 0.1 µM: read-out: Inhibition against enzyme activity (%); for inhibition at 1 µM: 10^-6 M; for inhibition at 0.1 µM: 10^-7 M
T1 construct: Rat lenses were removed from eyes of rats of the Wistar strain; from tissue; host or cells: lens of Wistar rats; enzyme purified by ammonium sulfate, DEAE-Sephacel, Matrex gel red A and Sephadex G-75
Protocol: (§1) The inhibitory activities against AR of LARI-1, LARI-2, LARI-3 and LARI-4 were determined according to the following method.
(§2) In Recipe Example, the followings were used. NADPH was purchased from the Oriental Yeast Co., Ltd. DL-Glyceraldehyde and quercitrin were purchased from Nakarai Chemicals, Ltd. DEAE-Sephacel and Sephadex G-75 were purchased from Pharmacia Fine Chemicals. Matrex gel red A was purchased from the Amicon Co. All other chemicals were of the highest grade commercially available.
(§3) Rat lenses were removed from eyes of rats of the Wistar strain weighing 200 to 250 g. Bovine eyes were obtained from a local abattoir, and the lenses were removed and frozen until needed.
(§4) Usually a 10^-3 M solution was prepared and diluted to the desired concentrations with propylene glycol. To the reaction mixture were added aliquots of the diluted solution to yield concentrations of 10^-8 M to 10^-5 M and a propylene glycol concentration of 1%.
(§5) AR assays were conducted according to the procedure of Hayman and Kinoshita (J. Biol. Chem. 240, p. 877 (1965)), except for the addition of ammonium sulfate instead of lithium sulfate to the reaction mixture. Assays were performed at 30° C. in 0.1M sodium phosphate buffer (pH 6.2) containing 0.4M ammonium sulfate, 10 mM DL-glyceraldehyde, 0.16 mM NADPH and the enzyme (0.010 to 0.016 unit) in a total volume of 1.0 ml. The effects of inhibitors on the enzyme activity were determined in the reaction mixture containing 10 μl. of each inhibitor solution at the desired concentrations. The blank reference to correct for non-specific reduction of NADPH contained all of the above compounds except DL-glyceraldehyde. The reaction was initiated by the addition of DL-glyceraldehyde, and the rate of NADPH oxidation was followed by recording the decrease in absorbance at 340 nm on a Gilford model 250 spectrophotometer.
(§6) BLAR and RLAR were purified according to the method of Inagaki et al (Archs Biochem. Biophys. 216, p. 337 (1982)). Briefly, a 40 to 75% ammonium sulfate fraction was subjected to chromatography on DEAE-Sephacel, followed by two column chromatographic steps, i.e. affinity chromatography using Matrex gel red A and gel filtration on Sephadex G-75.
(§7) The concentration of inhibitor required for eliciting a 50% inhibition (IC50) was determined according to the method of Kador et al (Docum. Ophthal. Proc. Series 18, p. 117 (1979)).

bovine lens AR = biological target: T2, bovine lens AR (Bos taurus, UniProt P16116); test: Inhibition of bovine lens aldose reductase (BLAR), NADPH oxidation at 340 nm; type: biochemical; conditions: for inhibition at 10 µM: 10^-5 M; for inhibition at 10 µM / inhibition at 1 µM / inhibition at 0.1 µM: read-out: Inhibition against enzyme activity (%); for inhibition at 1 µM: 10^-6 M; for inhibition at 0.1 µM: 10^-7 M; for IC50: Table 2, IC50 in M multiplied by 10^6
T2 construct: Bovine eyes were obtained from a local abattoir, and the lenses were removed and frozen until needed; from tissue; host or cells: bovine lens from a local abattoir; enzyme purified by ammonium sulfate, DEAE-Sephacel, Matrex gel red A and Sephadex G-75
Protocol: as §1, §2, §3, §4, §5, §6, §7

[1] = Table 2, IC50 in M multiplied by 10^6, read-out: IC50 (M) × 10^6
[2] = read-out: IC50 (inhibition of RLAR)

In the case of `COc1c(O)c(OC)c2c(=O)cc(-c3ccc(O)c(O)c3)oc2c1OC` [LARI-1, 3',4',6-trihydroxy-5,7,8-trimethoxyflavone], the inhibition at 10 µM (rat lens AR) is reported as 96%, the inhibition at 1 µM (rat lens AR) is reported as 92% and the inhibition at 0.1 µM (rat lens AR) is reported as 73%. The IC50 (rat lens AR; [1]) was 3.6e-08 M, the IC50 (rat lens AR; [2]) was 3.6e-08 M and the inhibition at 10 µM (bovine lens AR) was 100%. For the same molecule, the inhibition at 1 µM (bovine lens AR) was 91%, the inhibition at 0.1 µM (bovine lens AR) was 35% and the IC50 (bovine lens AR) was 180 nM.

`COc1c(OC)c(OC)c2c(=O)cc(-c3ccc(O)cc3)oc2c1OC` [LARI-2, 4'-hydroxy-5,6,7,8-tetramethoxyflavone] showed an inhibition at 10 µM (rat lens AR) of 91%, an inhibition at 1 µM (rat lens AR) of 81% and an inhibition at 0.1 µM (rat lens AR) of 44%. It also gave an IC50 (rat lens AR; [1]) of 1.6e-07 M, an IC50 (rat lens AR; [2]) of 1.6e-07 M and an inhibition at 10 µM (bovine lens AR) of 94%. The inhibition at 1 µM (bovine lens AR) was 80%, the inhibition at 0.1 µM (bovine lens AR) was 24% and the IC50 (bovine lens AR) was 290 nM.

Molecule `COc1c(O)c(OC)c2c(=O)cc(-c3ccc(O)cc3)oc2c1OC` [LARI-3, 4',6-dihydroxy-5,7,8-trimethoxyflavone] has an inhibition at 10 µM (rat lens AR) of 92%, an inhibition at 1 µM (rat lens AR) of 74% and an inhibition at 0.1 µM (rat lens AR) of 36%. For the same molecule, the IC50 (rat lens AR; [1]) was 2.5e-07 M, the IC50 (rat lens AR; [2]) was 2.5e-07 M and the inhibition at 10 µM (bovine lens AR) was 95%. The inhibition at 1 µM (bovine lens AR) was 70%, the inhibition at 0.1 µM (bovine lens AR) was 18% and the IC50 (bovine lens AR) was 420 nM.
